Experiments:
Type in all cases: biochemical
[1] = target: PAK3 (Homo sapiens, UniProt O75914); experiment: In vitro PAK inhibition assay (SelectScreen, Ser/Thr 20 peptide)
Method in brief: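 PAK3 phosphorylation of Ser/Thr 20 peptide in 50 mM HEPES pH 7.5, 0.01% BRIJ-35, 10 mM MgCl2, 1 mM EGTA, 1% DMSO final; 60 min at room temperature, then 60 min development reaction with fluorescence read-out. 10-point 3-fold titrations; percent phosphorylation from 0% and 100% phosphopeptide controls.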

[2] = target: PAK2 (PAK65) (Homo sapiens, UniProt Q13177); experiment: as above
Method in brief: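 FRET-based peptide cleavage assay: 0.29-6 ng PAK2 and 2 μM Ser/Thr 20 peptide in 50 mM HEPES pH 7.5, 10 mM MgCl2, 1 mM EGTA, 0.01% BRIJ-35, 1% DMSO final. Kinase reaction 60 min at room temperature, then 60 min development; 10-point 3-fold titrations, percent phosphorylation from fluorescence.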

[3] = target: PAK1 (Homo sapiens, UniProt Q13153); experiment: In vitro PAK inhibition assay (SelectScreen, Ser/Thr 19 peptide)
Method in brief: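 Kinase reaction ran in 50 mM HEPES pH 7.5, 0.01% BRIJ-35, 10 mM MgCl2, 1 mM EGTA with Ser/Thr 19 peptide for 60 min at room temperature, followed by 60 min protease development. Fluorescence gave percent phosphorylation. Compounds were tested as 10-point, 3-fold titrations in 1% DMSO final.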

[4] = target: PAK4 (Homo sapiens, UniProt O96013); experiment: In vitro PAK inhibition assay (SelectScreen, Ser/Thr 20 peptide)
Method in brief: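 FRET-based Ser/Thr 20 peptide phosphorylation: 0.1-0.75 ng PAK4, 2 μM peptide in 50 mM HEPES pH 7.5, 10 mM MgCl2, 1 mM EGTA, 0.01% BRIJ-35, 1% DMSO; 60 min at room temperature, then 60 min protease development. 10-point 3-fold titrations; IC50 from sigmoidal fit.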

PAK2 (PAK65), sequence (Q13177 whole entry): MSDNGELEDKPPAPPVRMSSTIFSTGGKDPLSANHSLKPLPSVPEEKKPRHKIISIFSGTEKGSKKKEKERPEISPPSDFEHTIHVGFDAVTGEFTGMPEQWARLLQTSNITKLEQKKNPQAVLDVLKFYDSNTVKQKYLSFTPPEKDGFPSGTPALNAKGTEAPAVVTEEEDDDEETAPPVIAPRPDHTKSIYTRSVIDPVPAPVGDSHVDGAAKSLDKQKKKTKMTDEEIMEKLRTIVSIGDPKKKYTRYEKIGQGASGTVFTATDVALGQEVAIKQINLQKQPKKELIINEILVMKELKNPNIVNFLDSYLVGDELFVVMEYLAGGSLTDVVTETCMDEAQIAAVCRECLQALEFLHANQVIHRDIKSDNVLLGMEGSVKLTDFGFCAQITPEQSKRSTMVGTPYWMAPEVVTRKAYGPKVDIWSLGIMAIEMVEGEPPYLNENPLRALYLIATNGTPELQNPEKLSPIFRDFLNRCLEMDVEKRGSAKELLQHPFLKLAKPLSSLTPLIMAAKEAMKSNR
PAK1, sequence (Q13153 whole entry): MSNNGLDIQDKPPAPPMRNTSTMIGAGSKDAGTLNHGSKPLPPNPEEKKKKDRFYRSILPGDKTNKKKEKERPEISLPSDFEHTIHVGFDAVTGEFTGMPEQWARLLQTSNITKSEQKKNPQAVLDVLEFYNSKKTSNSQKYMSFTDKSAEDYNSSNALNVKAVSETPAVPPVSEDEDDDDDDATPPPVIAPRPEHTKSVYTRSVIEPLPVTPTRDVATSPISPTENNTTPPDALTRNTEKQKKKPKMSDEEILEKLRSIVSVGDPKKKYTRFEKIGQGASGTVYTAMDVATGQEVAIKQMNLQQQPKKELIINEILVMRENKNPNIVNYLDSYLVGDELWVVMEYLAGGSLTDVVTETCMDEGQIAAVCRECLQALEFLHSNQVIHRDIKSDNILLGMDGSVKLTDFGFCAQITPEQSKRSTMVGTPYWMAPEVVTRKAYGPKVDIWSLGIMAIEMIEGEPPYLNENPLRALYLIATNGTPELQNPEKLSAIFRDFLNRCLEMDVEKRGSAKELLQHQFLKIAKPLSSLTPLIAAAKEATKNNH
PAK4, sequence (O96013 whole entry): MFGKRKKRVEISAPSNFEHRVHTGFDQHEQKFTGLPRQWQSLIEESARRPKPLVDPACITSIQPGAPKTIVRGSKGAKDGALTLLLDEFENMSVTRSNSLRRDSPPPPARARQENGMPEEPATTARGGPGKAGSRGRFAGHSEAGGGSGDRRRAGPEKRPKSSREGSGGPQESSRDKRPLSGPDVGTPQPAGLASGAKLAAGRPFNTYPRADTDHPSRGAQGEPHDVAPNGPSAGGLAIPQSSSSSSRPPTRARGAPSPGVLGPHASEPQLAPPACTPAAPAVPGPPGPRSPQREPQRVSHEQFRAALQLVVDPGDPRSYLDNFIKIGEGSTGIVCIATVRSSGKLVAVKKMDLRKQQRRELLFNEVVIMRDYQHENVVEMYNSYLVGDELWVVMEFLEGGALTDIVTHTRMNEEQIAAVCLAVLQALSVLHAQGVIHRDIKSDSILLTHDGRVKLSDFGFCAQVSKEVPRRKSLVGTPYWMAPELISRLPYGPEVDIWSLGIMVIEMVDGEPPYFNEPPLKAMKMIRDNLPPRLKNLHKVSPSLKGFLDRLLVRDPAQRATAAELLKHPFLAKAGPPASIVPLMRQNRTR
PAK3, sequence (O75914 whole entry): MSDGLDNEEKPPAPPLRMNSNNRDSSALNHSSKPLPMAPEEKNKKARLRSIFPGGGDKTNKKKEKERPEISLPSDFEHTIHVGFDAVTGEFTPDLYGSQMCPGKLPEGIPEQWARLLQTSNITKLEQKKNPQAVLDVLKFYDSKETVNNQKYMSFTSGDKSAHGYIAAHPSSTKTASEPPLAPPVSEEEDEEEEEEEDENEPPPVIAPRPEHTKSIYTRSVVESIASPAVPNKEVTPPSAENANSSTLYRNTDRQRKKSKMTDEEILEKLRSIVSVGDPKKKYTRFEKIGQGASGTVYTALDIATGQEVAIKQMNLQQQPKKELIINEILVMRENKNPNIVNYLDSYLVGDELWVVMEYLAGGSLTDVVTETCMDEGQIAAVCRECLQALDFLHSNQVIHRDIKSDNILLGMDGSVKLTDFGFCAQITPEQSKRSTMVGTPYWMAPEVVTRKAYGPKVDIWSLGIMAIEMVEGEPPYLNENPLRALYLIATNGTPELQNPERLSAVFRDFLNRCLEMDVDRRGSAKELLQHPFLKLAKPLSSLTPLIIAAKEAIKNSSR

Row | IC50 [1] [nM] | IC50 [2] [nM] | IC50 [3] [nM] | IC50 [4] [nM] | Structure (SMILES)
1 | 50 to 500 | 50 to 500 | < 50 | ≥ 5000 | CCn1c(=O)c(-c2ccc(-c3ccnc(C)c3)cc2Cl)cc2cnc(Nc3ccc(C4CCN5CCCC5C4)cc3)nc21 (centres unmarked)
2 | < 50 | < 50 | < 50 | ≥ 5000 | CCn1c(=O)c(-c2ccc(-c3ccco3)cc2Cl)cc2cnc(Nc3ccc(N4CCN(C)CC4)cc3)nc21
3 | 50 to 500 | < 50 | < 50 | ≥ 5000 | CCn1c(=O)c(-c2ccc(-c3ccnc(C)c3)cc2Cl)cc2cnc(Nc3ccc(C4CCN(C)CC4)c(F)c3)nc21
4 | 50 to 500 | 50 to 500 | 50 to 500 | ≥ 5000 | CCn1c(=O)c(-c2ccc(C3CC3)cc2Cl)cc2cnc(Nc3ccc(N4CCN(C)CC4)cc3)nc21
5 | < 50 | < 50 | < 50 | ≥ 5000 | Cc1nc(-c2ccc(-c3cc4cnc(Nc5ccc(CCN(C)C)cc5)nc4n(C)c3=O)c(Cl)c2)no1
6 | 50 to 500 | 50 to 500 | 50 to 500 | ≥ 5000 | CCn1c(=O)c(-c2ccc(-c3nccnc3C)cc2Cl)cc2cnc(Nc3ccccc3)nc21
7 | 50 to 500 | < 50 | < 50 | 500 to 5000 | CCN1CCC(c2ccc(Nc3ncc4cc(-c5ccc(-c6cnc(C)s6)cc5Cl)c(=O)n(CC)c4n3)cc2)CC1
8 | 50 to 500 | 50 to 500 | < 50 | ≥ 5000 | CCn1c(=O)c(-c2ccc(-c3ccc(F)nc3C)cc2Cl)cc2cnc(Nc3ccc(C4CCNCC4)cc3)nc21
9 | < 50 | < 50 | < 50 | 50 to 500 | CCN(CC)CCc1ccc(Nc2ncc3cc(-c4ccc(-c5cccnc5F)cc4Cl)c(=O)n(CC)c3n2)cc1
10 | 50 to 500 | 50 to 500 | < 50 | ≥ 5000 | Cc1ncccc1-c1ccc(-c2cc3cnc(Nc4ccc(CCN(C)C)cc4)nc3n(C)c2=O)c(Cl)c1
11 | < 50 | < 50 | < 50 | 50 to 500 | CCn1c(=O)c(-c2cc(C)c(-c3cccnc3)cc2Cl)cc2cnc(Nc3ccc(C4CCN(C)CC4)cc3)nc21
12 | 50 to 500 | < 50 | < 50 | 500 to 5000 | CCN1CCC(c2ccc(Nc3ncc4cc(-c5ccc(-c6ccc(C)nc6)cc5Cl)c(=O)n(CC)c4n3)cc2F)CC1
13 | > 5000 | > 5000 | > 5000 | ≥ 5000 | CCn1c(=O)c(-c2ccc(-c3csc(C)n3)s2)cc2cnc(Nc3ccc(N4CCN(C)CC4)cc3)nc21
14 | 50 to 500 | 50 to 500 | 50 to 500 | ≥ 5000 | CCn1c(=O)c(-c2ccc(-c3ccnc(C(=O)NC)c3)cc2Cl)cc2cnc(Nc3ccc(C4CCNCC4)cc3)nc21
15 | < 50 | < 50 | < 50 | ≥ 5000 | Cc1ncc(-c2cc(Cl)c(-c3cc4cnc(Nc5ccc(C6CCN(C)CC6)cc5)nc4n(C)c3=O)cc2F)s1
16 | < 50 | < 50 | < 50 | 50 to 500 | CCn1c(=O)c(-c2ccc(-c3noc(C)n3)cc2Cl)cc2cnc(Nc3ccc(N4CCNCC4)c(F)c3)nc21

Continued, compound first:

Row | Structure (SMILES) | IC50 [1] [nM] | IC50 [2] [nM] | IC50 [3] [nM] | IC50 [4] [nM]
17 | CCn1c(=O)c(-c2ccc(-c3noc(C)n3)cc2Cl)cc2cnc(Nc3ccc(C4CCNC4)cc3)nc21 (centres unmarked) | < 50 | < 50 | < 50 | 500 to 5000
18 | CCn1c(=O)c(-c2ccc(-c3cccc4[nH]ccc34)cc2Cl)cc2cnc(Nc3ccc(N4CCN(C)CC4)cc3)nc21 | 50 to 500 | 50 to 500 | < 50 | ≥ 5000
19 | CCn1c(=O)c(-c2ccc(-c3cccnc3F)cc2Cl)cc2cnc(Nc3ccc(CCN4CCCC4)cc3)nc21 | < 50 | < 50 | < 50 | 50 to 500
20 | CCN1CCC(c2ccc(Nc3ncc4cc(-c5ccc(-c6ccnc(C)c6)cc5Cl)c(=O)n(CC)c4n3)cc2)CC1 | 50 to 500 | < 50 | < 50 | ≥ 5000
21 | CCn1c(=O)c(-c2ccc(-c3cn[nH]c3)cc2Cl)cc2cnc(Nc3ccc(N4CCN(C)CC4)cc3)nc21 | 50 to 500 | 50 to 500 | 50 to 500 | ≥ 5000
22 | CCn1c(=O)c(-c2ccc(-c3cccnc3F)cc2Cl)cc2cnc(Nc3ccc(C4CCNCC4)c(F)c3)nc21 | < 50 | < 50 | < 50 | 500 to 5000
23 | CCn1c(=O)c(-c2ccc(-c3ccnc(C(=O)NC)c3)cc2Cl)cc2cnc(Nc3ccc(C4CCNCC4)c(F)c3)nc21 | > 5000 | 50 to 500 | 50 to 500 | ≥ 5000
24 | CCn1c(=O)c(-c2ccc(-c3noc(C)n3)cc2Cl)cc2cnc(Nc3ccc(C4CCNCC4)c(F)c3)nc21 | < 50 | < 50 | < 50 | 500 to 5000
25 | CCn1c(=O)c(-c2ccc(-c3cccnc3F)cc2Cl)cc2cnc(Nc3ccc(CCN4CCOCC4)cc3)nc21 | 50 to 500 | 50 to 500 | 50 to 500 | ≥ 5000
26 | CCn1c(=O)c(-c2ccc(-c3ccc(NC(C)=O)nc3)cc2Cl)cc2cnc(Nc3ccc(N4CCN(C)CC4)cc3)nc21 | 500 to 5000 | 500 to 5000 | > 5000 | ≥ 5000
27 | Cc1nc(-c2cc(Cl)c(-c3cc4cnc(Nc5ccc(C6CCN(C)CC6)cc5)nc4n(C)c3=O)cc2F)no1 | < 50 | < 50 | < 50 | ≥ 5000
28 | CCn1c(=O)c(-c2ccc(-c3nccs3)cc2Cl)cc2cnc(Nc3ccc(N4CCN(C)CC4)cc3)nc21 | < 50 | < 50 | < 50 | 500 to 5000
29 | CN1CCC(c2ccc(Nc3ncc4cc(-c5cc(-c6ccccn6)ccc5Cl)c(=O)n(C)c4n3)cc2)CC1 | 50 to 500 | 500 to 5000 | 50 to 500 | ≥ 5000
30 | CCn1c(=O)c(-c2ccc(-c3cccnc3)cc2Cl)cc2cnc(Nc3ccc(C4CCNCC4)c(F)c3)nc21 | < 50 | < 50 | < 50 | 500 to 5000
31 | CCN1CCC(c2ccc(Nc3ncc4cc(-c5ccc(-c6ccc(C)nc6F)cc5Cl)c(=O)n(CC)c4n3)cc2F)CC1 | 50 to 500 | 50 to 500 | 50 to 500 | ≥ 5000
32 | CCn1c(=O)c(-c2ccc(-c3cccnc3)cc2Cl)cc2cnc(Nc3ccc(C4CCNC4)cc3)nc21 (centres unmarked) | < 50 | < 50 | < 50 | 500 to 5000
33 | CCn1c(=O)c(-c2ccc(-c3cncnc3)cc2Cl)cc2cnc(Nc3ccc(N4CCN(C)CC4)c(F)c3)nc21 | < 50 | < 50 | < 50 | ≥ 5000
34 | CCN1CCC(c2ccc(Nc3ncc4cc(-c5ccc(-c6cccnc6F)cc5Cl)c(=O)n(CC)c4n3)cc2)CC1 | < 50 | < 50 | < 50 | 50 to 500
35 | CCn1c(=O)c(-c2ccc(-c3cnc(C)s3)cc2Cl)cc2cnc(Nc3ccc(CCN4CCCC4)cc3)nc21 | < 50 | < 50 | < 50 | 500 to 5000
36 | CCN(CC)CCc1ccc(Nc2ncc3cc(-c4ccc(-c5noc(C)n5)cc4Cl)c(=O)n(CC)c3n2)cc1 | < 50 | < 50 | < 50 | 500 to 5000
37 | Cc1cnc(-c2ccc(-c3cc4cnc(Nc5ccc(C6CCN(C)CC6)cc5)nc4n(C)c3=O)c(C)c2)s1 | 50 to 500 | < 50 | < 50 | 500 to 5000
38 | CCn1c(=O)c(-c2ccc(-c3ccc(C)nc3)cc2Cl)cc2cnc(Nc3ccc(C4CCNCC4)c(F)c3)nc21 | 50 to 500 | < 50 | < 50 | 500 to 5000
39 | CCn1c(=O)c(-c2ccc(-c3noc(C)n3)cc2C)cc2cnc(Nc3ccc(C4CCN(C)CC4)cc3)nc21 | < 50 | < 50 | < 50 | 500 to 5000
40 | CN(C)CCc1ccc(Nc2ncc3cc(-c4ccc(-c5cccnc5N(C)C)cc4Cl)c(=O)n(C)c3n2)cc1 | 500 to 5000 | 500 to 5000 | 50 to 500 | ≥ 5000
41 | CCn1c(=O)c(-c2ccc(-c3cc(N(C)C)ncn3)cc2Cl)cc2cnc(Nc3ccc(C4CCN(C)CC4)cc3)nc21 | 50 to 500 | 50 to 500 | < 50 | ≥ 5000
42 | CCn1c(=O)c(-c2ccc(-c3noc(C)n3)cc2Cl)cc2cnc(Nc3ccc(C4CCNC4)c(F)c3)nc21 (centres unmarked) | < 50 | < 50 | < 50 | 500 to 5000
43 | CCn1c(=O)c(-c2ccc(-c3cnc(C)s3)cc2Cl)cc2cnc(Nc3ccc(C4CCN5CCCC5C4)cc3)nc21 (centres unmarked) | < 50 | < 50 | < 50 | 500 to 5000
44 | CCn1c(=O)c(-c2ccc(-c3ccc(F)nc3C)cc2Cl)cc2cnc(Nc3ccc(C4CCN(C)CC4)c(F)c3)nc21 | 50 to 500 | 50 to 500 | 50 to 500 | ≥ 5000

Reference: patent US20140163026A1, “8-ETHYL-6-(ARYL)PYRIDO[2,3-D]PYRIMIDIN-7(8H)-ONES FOR THE TREATMENT OF NERVOUS SYSTEM DISORDERS AND CANCER” (Afraxis Holdings, Inc., priority 2011, published 2014)
